Here are results for eight molecules from article PMC9823356, “Inhibition of Cancer Cell Proliferation and Bacterial Growth by Silver(I) Complexes Bearing a CH3-Substituted Thiadiazole-Based Thioamide” (Molecules, 2023).

The test system of assay [1] is Escherichia coli (E. coli). The assay can be described thus: In vitro antibacterial activity, progressive double dilutions, culture turbidity. Format: cell-based. The conditions noted are these: for MIC: ampicillin reference against E.coli (BL21). The text has this:
(§1) The growth of bacteria was estimated by measuring the turbidity of the culture, as previously reported. […] The pH of the media was adjusted to 7.0.

The test system of assay [2] is MRC5 human normal lung cells. The experiment in a line: MTT cytostatic/cytotoxic assay. It is filed as cell-based. The conditions noted are these: MRC5, 48 h treatment; for IC50: cytocidal/cytotoxic; for GI50: growth inhibition; for TGI: total growth inhibition. The method, then: (§2) The cell lines were obtained from the American Type of Culture collection (ATCC), except HuP-T3 which was kindly donated from University of Crete, School of Medicine, Greece, and were grown in different culture medium according to the instructions.
(§3) For the determination of the cell viability, it was employed the MTT assay. Cells were plated in 96-well plate at a density of 1 × 10^4 cells/mL per well and maintained for 72 h at 37 °C in a 5% CO2 incubator and grown as monolayers. […] The viability of cultured cells was estimated by a (3-(4,5-imethylthiazol-2-yl)-2,5-diphenyltetrazolium bromide (MTT) metabolic assay as previously described.
(§4) In brief, MTT (Sigma, St Louis, Missouri, USA) was dissolved in PBS in a concentration of 5 mg/mL, filter sterilized, and stored at 4 °C. Then, 50 μL of stock solution was added to each culture and incubated for 3 h at 37 °C. Formazan crystals were solubilized by DMSO (100 μL). Absorbance of the converted dye was measured at a wavelength of 540 nm on ELISA reader (VersaMax Microplate Reader Orleans, USA). […] Using seven absorbance measurements [time 24 h (Ct24), control growth 72 h (Ct72), and test growth in the presence of drug at five concentration levels (Tt72x)], the percentage of growth was calculated at each level of the drug concentrations. The percentage growth inhibition was calculated according to National Cancer Institute (NCI) as: {[(Tt72x) − (Ct24)]/[(Ct72) − (Ct24)]} × 100 for concentrations for which Tt72x>Ct24 and {(Tt72x) − (Ct24)]/(Ct24)} × 100 for concentrations for which Tt72x<Ct24. […] All experiments were carried out in triplicate. A significant difference was presumed to exist when p ≤ 0.05 (two tailed paired t test).

Assay [3] relates to Bacillus cereus (B. cereus). The assay can be described thus: In vitro antibacterial activity, progressive double dilutions, culture turbidity. It is filed as cell-based.
Description: as §1

Assay [4] concerns Bacillus subtilis (B. subtilis). Described as above. It is filed as cell-based.
Description: as §1

Assay [5] concerns Staphylococcus aureus (S. aureus). The description is as above. It is filed as cell-based.
Description: as §1

The test system of assay [6] is DMS114 small cell lung cancer cells. The assay can be described thus: MTT cytostatic/cytotoxic assay. Format: cell-based, human. The conditions noted are these: DMS114, 48 h treatment; for LC50: cytocidal/cytotoxic, read-out: IC50 (the source's name); for GI50: growth inhibition; for TGI: total growth inhibition. As to the method: as §2, §3
as §4, with “Using seven absorbance measurements [time 24 h (Ct24), control growth 72 h (Ct72), and test growth in the presence of drug at five concentration levels (Tt72x)], the percentage of growth was calculated at each level of the drug concentrations.” left out

Assay [7] has as its system SKOV-3 ovarian cancer cells. The experiment in a line: MTT cytostatic/cytotoxic assay. Format: cell-based, human. Conditions: SKOV-3, 48 h treatment; for LC50: cytocidal/cytotoxic, read-out: IC50 (the source's name); for GI50: growth inhibition; for TGI: total growth inhibition. As to the method: as §2, §3
as §4, with “Using seven absorbance measurements [time 24 h (Ct24), control growth 72 h (Ct72), and test growth in the presence of drug at five concentration levels (Tt72x)], the percentage of growth was calculated at each level of the drug concentrations.” left out

Assay [8] relates to Hup-T3 pancreatic adenocarcinoma cells. The experiment in a line: MTT cytostatic/cytotoxic assay. Format: cell-based, human. The conditions noted are these: Hup-T3, 48 h treatment; for IC50: cytocidal/cytotoxic; for GI50: growth inhibition; for TGI: total growth inhibition. The method, then:
as §2, §3, §4

For assay [9], the system named is PC3 prostate adenocarcinoma cells. The assay can be described thus: MTT cytostatic/cytotoxic assay. Format: cell-based, human. The conditions noted are these: PC3, 48 h treatment; for LC50: cytocidal/cytotoxic, read-out: IC50 (the source's name); for GI50: growth inhibition; for TGI: total growth inhibition. As to the method:
as §2, §3, §4

Assay [10] in a line: Reduction of hydrogen peroxide. The conditions noted are these: compound 0.1 mM, 20 min, phosphate buffer pH 7.4. The method, then: In vitro antioxidant activity studies for 1–4 and their free ligands were performed in order to determine their ability to scavenge DPPH, and ABTS free radicals and to reduce H2O2 and was compared with the antioxidant capacity of reference compounds (NDGA, BHT, trolox and ascorbic acid).
The absorbance was measured at 230 nm after 20 min. The antioxidant activity of the compounds was expressed as percent reduction of H2O2 (%H2O2). Ascorbic acid (or vitamin C) was used as an appropriate standard.

Assay [11] deals with calf-thymus (CT) DNA. The experiment in a line: CT DNA interaction by UV-visible spectroscopy. Conditions: DMSO solution, upon addition of CT DNA; + hyperchromism, – hypochromism.
Description: The UV-visible spectra of CT DNA solution (1.5 × 10^−4 M) were recorded in the presence of each compound at diverse [compound]/[DNA] mixing ratios (r).
Setting [12] is: Escherichia coli, read-out: MIC.
The mark [13] stands for this setting: value in parentheses, mean ± SD, read-out: IC50.
The mark [14] stands for this setting: Bacillus cereus, read-out: IC50.
Where [15] appears, read: Bacillus subtilis, read-out: IC50.
Where [16] appears, read: Bacillus subtilis, read-out: MIC.
[17] abbreviates: Escherichia coli, read-out: IC50.
The mark [18] stands for this setting: Staphylococcus aureus, read-out: IC50.
Setting [19] is: Staphylococcus aureus, read-out: MIC.

≈ marks a conversion by molar mass, not a printed value. Where “and” joins values, the source holds several entries; their conditions need not be identical. Equal values may be shown once. Read-outs that look alike come from different tables or passages of the source. A value given as a limit tells only on which side of the number the result lay.

As for `CC1(C)S[C@@H]2[C@H](NC(=O)[C@H](N)c3ccccc3)C(=O)N2[C@H]1C(=O)O` [Ampicillin, reference compound], the minimum inhibitory concentration (MIC) in assay [1] (setting [12]) worked out at 100 µg/mL (≈ 286 µM).

In the case of `N.N.[Cl][Pt][Cl]` [Cisplatin, reference compound], in [2], 36 ± 2 µM corresponded to half-maximal inhibition (IC50), the GI50 turned out to be 8 ± 1 µM and the TGI amounted to 24±2 μΜ.

For `Cc1n[nH]c(=S)s1.[Cl][Ag].c1ccc(P(c2ccccc2)c2ccccc2)cc1.c1ccc(P(c2ccccc2)c2ccccc2)cc1` [Compound 1, [AgCl(mtdztH)(PPh3)2]], the IC50 was 81 µg/mL in assay [3]; 101 ± 10.3 µM in assay [3] (setting [13]); 21 µg/mL in assay [4]; 26 ± 4 µM in assay [4] (setting [13]); “higher than 100 μg/mL” in [1]; 16 µg/mL in [5]. In addition, the figures for the IC50 in assay [5] (setting [13]), in [2] and in [8] were 20 ± 3.2 µM, 9.2 ± 0.8 µM and 9.2 ± 0.3 µM, respectively. Further, the MIC was 100 µg/mL in assay [3], 100 µg/mL in [4], “higher than 100 μg/mL” in assay [1] and 100 µg/mL in assay [5]. Moreover, the “activity against the Gram-(–) E. coli bacteria (in words)” value in assay [1] is “negligible activity”. Also, the 50% growth inhibitory concentration (GI50) in assay [2] was 3 ± 0.5 µM; in assay [6], 1.9 ± 0.1 µM; in [7] it was 1.2 ± 0.2 µM; in assay [8], 2.2 ± 0.2 µM; in assay [9] it was 3 ± 0.3 µM. Further, the TGI in assay [2] turned out to be 5.2±0.5 μΜ; in assay [6], 3.1±0.1 μΜ; in [7] it was 3.1±0.4 μΜ; in [8], 4.1±0.3 μΜ; in assay [9], 5.7±0.5 μΜ. Further, the LC50 in [6] worked out at 4.5 ± 0.3 µM; in [7], 5.7 ± 0.4 µM; in assay [9], 9.6 ± 0.5 µM. Moreover, the “H2O2 reducing ability (%H2O2)” value in [10] was determined as 74.85±0.79%.

On to `Cc1nnc([S][Ag])s1.c1ccc(P(c2ccccc2)c2ccccc2)cc1.c1ccc(P(c2ccccc2)c2ccccc2)cc1.c1ccc(P(c2ccccc2)c2ccccc2)cc1` [Compound 2, [Ag(mtdzt)(PPh3)3]], for which the concentration for half-maximal inhibition (IC50) was 12.5 µg/mL in assay [3]; 12 ± 1.4 µM in [3] (setting [13]); 20 µg/mL in assay [4]; 19 ± 2.8 µM in [4] (setting [13]); “higher than 100 μg/mL” in assay [1]; 17 µg/mL in [5]. Also, the values for the 50% inhibitory concentration (IC50) in assay [5] (setting [13]), in assay [2] and in [8] were 16 ± 2.6 µM, 4.1 ± 0.06 µM and 4.5 ± 0.2 µM, respectively. Also, the minimum inhibitory concentration (MIC) is 100 µg/mL in assay [3], 100 µg/mL in assay [4], “higher than 100 μg/mL” in assay [1] and 100 µg/mL in assay [5]. Further, the “activity against the Gram-(–) E. coli bacteria (in words)” value in [1] is listed as “negligible activity”. The 50% growth inhibitory concentration (GI50) in assay [2] is 2 ± 0.02 µM; in [6] it was 1.2 ± 0.05 µM; in assay [7], 1.9 ± 0.2 µM; in assay [8], 1.9 ± 0.2 µM; in assay [9], 2 ± 0.05 µM. Also, the TGI in assay [2] was 3.0±0.05 μΜ; in [6], 2.6±0.1 μΜ; in assay [7], 3.0±0.3 μΜ; in [8], 3.2±0.2 μΜ; in assay [9], 3.2±0.12 μΜ. The LC50 in [6] was found to be 4 ± 0.25 µM; in assay [7], 4.1 ± 0.3 µM; in [9], 4.4 ± 0.15 µM. Besides, the “H2O2 reducing ability (%H2O2)” value in [10] was 80.59±0.55% and 80%.

As for `O=C1O[C@H]([C@@H](O)CO)C(O)=C1O` [L-ascorbic acid, reference compound], the “H2O2 reducing ability (%H2O2)” value in [10] came to 60.80±0.20%.

For `c1ccc(P(c2ccccc2)c2ccccc2)cc1` [PPh3, thriphenylphosphine, reference compound], the IC50 in [3] was 70 µg/mL; in assay [3] (setting [13]) it was 267 ± 9 µM; in [4], “higher than 100 μg/mL”; in assay [4] (setting [13]), over 380 µM; in assay [1] it was 51 µg/mL; in assay [1] (setting [13]), 194 ± 2 µM. The half-inhibitory concentration (IC50) in assay [5] stood at 70 µg/mL; in assay [5] (setting [13]), 267 ± 2.2 µM. Moreover, the MIC entry in [3], in assay [4], in [1] and in assay [5] was “higher than 100 μg/mL” throughout. For the same molecule, in assay [10], the “H2O2 reducing ability (%H2O2)” value is 87.96±1.32%.

As to `c1ccc(P(CCP(c2ccccc2)c2ccccc2)c2ccccc2)cc1` [dppe, 1,2-bis(diphenylphosphino)ethane, reference compound], the concentration for half-maximal inhibition (IC50) in [3] (setting [14]), in [4] (setting [15]), in assay [1] (setting [17]) and in assay [5] (setting [18]) was over 100 µg/mL throughout. Further, the MIC in assay [3] (Bacillus cereus, read-out: MIC) was over 100 µg/mL; in assay [4] (setting [16]), over 100 µg/mL; in assay [1] (setting [12]) it was over 100 µg/mL; in assay [5] (setting [19]), over 100 µg/mL. The “H2O2 reducing ability (%H2O2)” value in assay [10] was found to be 92.64±0.71%.

As for `Cc1nnc(S)s1` [mtdztH, 5-methyl-1,3,4-thiadiazole-2-thiol, reference compound], the IC50 worked out at 21 µg/mL in assay [3] (setting [14]); 159 ± 8.9 µM in assay [3] (Bacillus cereus, value in parentheses, mean ± SD, read-out: IC50); 53 µg/mL in [4] (setting [15]); 401 ± 16.2 µM in assay [4] (Bacillus subtilis, value in parentheses, mean ± SD, read-out: IC50); 30 µg/mL in assay [1] (setting [17]); 227 ± 6 µM in assay [1] (Escherichia coli, value in parentheses, mean ± SD, read-out: IC50). Besides, the half-maximal inhibitory concentration (IC50) in assay [5] (setting [18]) came out at 21 µg/mL; in assay [5] (Staphylococcus aureus, value in parentheses, mean ± SD, read-out: IC50), 159 ± 9 µM. Further, the MIC was over 100 µg/mL in [3] (Bacillus cereus, read-out: MIC); over 100 µg/mL in assay [4] (setting [16]); over 100 µg/mL in assay [1] (setting [12]); over 100 µg/mL in assay [5] (setting [19]). In [10], the “H2O2 reducing ability (%H2O2)” value worked out at 97.17±0.10%. Also, the “percentage of hyper-/hypochromism ΔA/Aο” value in assay [11] is listed as “–12%”.
